According to patent US4582822A, “Antibiotic A80190, pharmaceutical compositions containing same and method of use” (Eli Lilly and Company, priority 1984, dated 1986):
Where a SMILES comes first, the peptide text is derived from it. Bridges are numbered along the chain shown (N, C = ends). [ ]: non-standard residue; d: D form. The star is where a group is joined. Ileψ(thiazoline)Cys = CC[C@H](C)[C@H](N)C1=N[C@H](C(=O)*)CS1; dOrn = NCCC[C@@H](N)C(=O)O

How the values were obtained:
NRRL 15878 = assay: Resistance to antibiotics, sensitivity discs on seeded agar; assay type: cell-based, Actinomadura oligospora
Procedure: (§1) Resistance to antibiotics was measured by padding antibiotic sensitivity discs onto the surface of seeded ISP No. 2 agar plates.
(§2) Table III lists the resistance of the strain to various antibiotics at the concentrations indicated and compares it to that of A. macra.

A. macra = assay: as above; assay type: cell-based, Actinomadura macra
Procedure: as §1, §2

CC[C@H](C)[C@H](N)C1=N[C@H](C(=O)N[C@@H](CC(C)C)C(=O)N[C@H](CCC(=O)O)C(=O)N[C@H](C(=O)N[C@H]2CCCCNC(=O)[C@H](CC(N)=O)NC(=O)[C@@H](CC(=O)O)NC(=O)[C@H](Cc3cnc[nH]3)NC(=O)[C@@H](Cc3ccccc3)NC(=O)[C@H]([C@@H](C)CC)NC(=O)[C@@H](CCCN)NC2=O)[C@@H](C)CC)CS1 [Bacitracin] ({Ileψ(thiazoline)Cys}-L[dE]IK[dOrn]I[dF]H[dD]N; lactam 4-C)
Resistance to Antibiotics (NRRL 15878; 10 units): + | Resistance to Antibiotics (A. macra; 10 units): -

CC(=O)OCC1=C(C(=O)O)N2C(=O)[C@@H](NC(=O)Cc3cccs3)[C@H]2SC1 [Cephalothin]
Resistance to Antibiotics (A. macra; 30 μg): +

CC1(C)S[C@@H]2[C@H](NC(=O)Cc3ccccc3)C(=O)N2[C@H]1C(=O)O [Pencillin G]
Resistance to Antibiotics (NRRL 15878; 10 units): + | Resistance to Antibiotics (A. macra; 10 units): +

CO[C@H]1/C=C/O[C@@]2(C)Oc3c(C)c(O)c4c(O)c(c(/C=N/N5CCN(C)CC5)c(O)c4c3C2=O)NC(=O)/C(C)=C\C=C\[C@H](C)[C@H](O)[C@@H](C)[C@@H](O)[C@@H](C)[C@H](OC(C)=O)[C@@H]1C [Rifampin]
Resistance to Antibiotics (A. macra; 5 μg): +

CN[C@@H]1[C@H](O[C@H]2[C@H](O[C@H]3[C@H](O)[C@@H](O)[C@H](N=C(N)N)[C@@H](O)[C@@H]3N=C(N)N)O[C@@H](C)[C@]2(O)C=O)O[C@@H](CO)[C@H](O)[C@H]1O [Streptocmycin]
Resistance to Antibiotics (NRRL 15878; 10 μg): - | Resistance to Antibiotics (A. macra; 10 μg): +

CN[C@H](CC(C)C)C(=O)N[C@H]1C(=O)N[C@@H](CC(N)=O)C(=O)N[C@H]2C(=O)N[C@H]3C(=O)N[C@H](C(=O)N[C@H](C(=O)O)c4cc(O)cc(O)c4-c4cc3ccc4O)[C@H](O)c3ccc(c(Cl)c3)Oc3cc2cc(c3O[C@@H]2O[C@H](CO)[C@@H](O)[C@H](O)[C@H]2O[C@H]2C[C@](C)(N)[C@H](O)[C@H](C)O2)Oc2ccc(cc2Cl)[C@H]1O [Vancomycin]
Resistance to Antibiotics (NRRL 15878; 30 μg): - | Resistance to Antibiotics (A. macra; 30 μg): -

Gentamicin
Resistance to Antibiotics (NRRL 15878; 10 μg): - | Resistance to Antibiotics (A. macra; 10 μg): -

Tetracycline
Resistance to Antibiotics (NRRL 15878; 30 μg): - | Resistance to Antibiotics (A. macra; 30 μg): -
